Measurements: patent publication US6319702A, “Nucleic acids encoding mutant human carboxypeptidase A enzymes” (Glaxo Wellcome, Inc., priority 1993, dated 2001)
Like-named read-outs stand apart in the source and are kept apart here.

Experiment: Stability and biodistribution of prodrugs in vivo (HPLC of plasma and tissues)
Design: species or system mice (CD-1 nude; BALB/C where indicated)
Conditions: 50 mg/kg i.p. or i.v., CD-1 nude mice
[1] = mouse, cecum, 50 mg/kg, CECUM, 30 min, read-out: stability: percentage of material observed as intact prodrug, cecum
[2] = mouse, kidney, 50 mg/kg, KIDNEY, 30 min, read-out: stability: percentage of material observed as intact prodrug, kidney
[3] = mouse, large intestine, 50 mg/kg, LARGE INTESTINE, 30 min, read-out: stability: percentage of material observed as intact prodrug, large intestine
[4] = mouse, liver, 50 mg/kg, LIVER, 30 min, read-out: stability: percentage of material observed as intact prodrug, liver (converted)
[5] = mouse, plasma, 50 mg/kg, PLASMA, 30 min, read-out: concentration of prodrug in plasma
[6] = mouse, plasma, 50 mg/kg, PLASMA, 30 min, read-out: stability: percentage of material observed as intact prodrug, plasma
[7] = mouse, plasma, 50 mg/kg, PLASMA, 120 min, read-out: concentration of prodrug in plasma
[8] = mouse, plasma, 50 mg/kg, PLASMA, 120 min, read-out: stability: percentage of material observed as intact prodrug, plasma
[9] = mouse, small intestine, 50 mg/kg, SMALL INTESTINE, 30 min, read-out: stability: percentage of material observed as intact prodrug, small intestine
[10] = mouse, small intestine, 50 mg/kg, SMALL INTESTINE, 120 min, read-out: stability: percentage of material observed as intact prodrug, small intestine
[11] = mouse, tumor, 50 mg/kg, TUMOR, 30 min, read-out: stability: percentage of material observed as intact prodrug, tumor

| SMILES | concentration of prodrug in cecum (CECUM, 30 min) | concentration of prodrug in kidney (KIDNEY, 30 min) | concentration of prodrug in large intestine (LARGE INTESTINE, 30 min) | concentration of prodrug in liver (LIVER, 30 min) | concentration of prodrug in small intestine (SMALL INTESTINE, 30 min) | concentration of prodrug in small intestine (SMALL INTESTINE, 120 min) | concentration of prodrug in tumor (TUMOR, 30 min) | remaining at 0.5 h [1] | remaining at 0.5 h [2] | remaining at 0.5 h [3] | remaining at 0.5 h [4] | concentration at 0.5 h [5] | remaining at 0.5 h [6] | concentration at 2 h [7] | remaining at 2 h [8] | remaining at 0.5 h [9] | remaining at 2 h [10] | remaining at 0.5 h [11] | further results |
| --- | --- | --- | --- | --- | --- | --- | --- | --- | --- | --- | --- | --- | --- | --- | --- | --- | --- | --- | --- |
| Cc1nc2ccc3ccc(CNc4ccc5c(c4)CN([C@@H](CCC(=O)O)C(=O)N[C@@H](Cc4ccccc4)C(=O)O)C5=O)cc3c2c(=O)[nH]1 [Prodrug 2, N-((S)-4-carboxy-2-(5-(((1,2-dihydro-3-methyl-1-oxoxbenzo(F)quinazolin-9-yl)methyl)amino)-1-oxo-2-isoindolinyl)butanoyl)-L-phenylalanine] | 2.7 nmol/g | 9.0 nmol/g | 5.9 nmol/g | 42.0 nmol/g | 170.2 nmol/g | 17.6 nmol/g | 2.7 nmol/g | 96% | 96% | 93% | 96% | 33 µM | 100% | 0.3 µM | 93% | 91% | 47% | 98% | concentration of prodrug in kidney (KIDNEY, 90 min): 1.3 nmol/g; concentration of prodrug in kidney (KIDNEY, 180 min): 0.2 nmol/g; concentration of prodrug in large intestine (LARGE INTESTINE, 90 min): 0.7 nmol/g; concentration of prodrug in large intestine (LARGE INTESTINE, 180 min): 1.3 nmol/g; concentration of prodrug in liver (LIVER, 90 min): 9.1 nmol/g; concentration of prodrug in liver (LIVER, 180 min): 0.8 nmol/g; concentration (PLASMA, 30 min, 50 mg/kg, 30 min, read-out: concentration of prodrug in plasma): 22.1 µM; remaining at 1.5 h (mouse, kidney, 50 mg/kg, KIDNEY, 90 min, read-out: stability: percentage of material observed as intact prodrug, kidney): 98%; remaining at 3 h (mouse, kidney, 50 mg/kg, KIDNEY, 180 min, read-out: stability: percentage of material observed as intact prodrug, kidney): 100%; remaining at 1.5 h (mouse, large intestine, 50 mg/kg, LARGE INTESTINE, 90 min, read-out: stability: percentage of material observed as intact prodrug, large intestine): 60%; remaining at 3 h (mouse, large intestine, 50 mg/kg, LARGE INTESTINE, 180 min, read-out: stability: percentage of material observed as intact prodrug, large intestine): 52%; remaining at 1.5 h (mouse, liver, 50 mg/kg, LIVER, 90 min, read-out: stability: percentage of material observed as intact prodrug, liver): 100%; remaining at 3 h (mouse, liver, 50 mg/kg, LIVER, 180 min, read-out: stability: percentage of material observed as intact prodrug, liver): 100%; concentration at 1.5 h (mouse, plasma, 50 mg/kg, PLASMA, 90 min, read-out: concentration of prodrug in plasma): 5.5 µM; remaining at 1.5 h (mouse, plasma, 50 mg/kg, PLASMA, 90 min, read-out: stability: percentage of material observed as intact prodrug, plasma): 98%; concentration at 3 h (mouse, plasma, 50 mg/kg, PLASMA, 180 min, read-out: concentration of prodrug in plasma): 3.5 µM; remaining at 3 h (mouse, plasma, 50 mg/kg, PLASMA, 180 min, read-out: stability: percentage of material observed as intact prodrug, plasma): 97% |
| CN(Cc1cnc2nc(N)nc(N)c2n1)c1ccc(C(=O)N[C@@H](CCC(=O)O)C(=O)N[C@@H](CC(=O)O)C(=O)O)cc1 [Prodrug 6] | 7.5 nmol/g | 93.4 nmol/g | 5.7 nmol/g | 287.8 nmol/g | 21.3 nmol/g | 14.2 nmol/g | 7.5 nmol/g | 82% | 98% | 100% | 97% | 46.7 µM | 100% | 2 µM | 100% | 86% | 54% | 82% | concentration of prodrug in cecum (CECUM, 120 min): 0.8 nmol/g; concentration of prodrug in feces (FECES, 30 min): 42 nmol/g; concentration of prodrug in feces (FECES, 120 min): 207 nmol/g; concentration of prodrug in kidney (KIDNEY, 120 min): 12.6 nmol/g; concentration of prodrug in large intestine (LARGE INTESTINE, 120 min): 19.4 nmol/g; concentration of prodrug in liver (LIVER, 120 min): 161.6 nmol/g; concentration of prodrug in spleen (SPLEEN, 30 min): 3.4 nmol/g; concentration of prodrug in spleen (SPLEEN, 120 min): 0.0 nmol/g; concentration of prodrug in tumor (TUMOR, 120 min): 0.8 nmol/g; remaining at 2 h (mouse, cecum, 50 mg/kg, CECUM, 120 min, read-out: stability: percentage of material observed as intact prodrug, cecum): 59%; remaining at 0.5 h (mouse, feces, 50 mg/kg, FECES, 30 min, read-out: stability: percentage of material observed as intact prodrug, feces (converted)): 21%; remaining at 2 h (mouse, feces, 50 mg/kg, FECES, 120 min, read-out: stability: percentage of material observed as intact prodrug, feces): 52%; remaining at 2 h (mouse, kidney, 50 mg/kg, KIDNEY, 120 min, read-out: stability: percentage of material observed as intact prodrug, kidney): 98%; remaining at 2 h (mouse, large intestine, 50 mg/kg, LARGE INTESTINE, 120 min, read-out: stability: percentage of material observed as intact prodrug, large intestine): 65%; remaining at 2 h (mouse, liver, 50 mg/kg, LIVER, 120 min, read-out: stability: percentage of material observed as intact prodrug, liver): 93%; remaining at 0.5 h (mouse, spleen, 50 mg/kg, SPLEEN, 30 min, read-out: stability: percentage of material observed as intact prodrug, spleen): 70%; remaining at 2 h (mouse, spleen, 50 mg/kg, SPLEEN, 120 min, read-out: stability: percentage of material observed as intact prodrug, spleen): 0%; remaining at 2 h (mouse, tumor, 50 mg/kg, TUMOR, 120 min, read-out: stability: percentage of material observed as intact prodrug, tumor): 59% |
